# Test results: BindingDB's records for doi:10.1038/nchembio.662 (University of California San Francisco, 2011)
# Molecular target: D(2) dopamine receptor (Homo sapiens, UniProt P14416)
# Experiment: Binding Assay
# Conditions: pH 7.4; 22 °C
# Method: (§1) Affinities for D3-dopaminergic, D2-dopaminergic and beta2-adrenergic receptors were determined by radioligand competition binding at the National Institute of Mental Health Psychoactive Drug Screening Program.
# Chain of D(2) dopamine receptor (P14416 whole entry): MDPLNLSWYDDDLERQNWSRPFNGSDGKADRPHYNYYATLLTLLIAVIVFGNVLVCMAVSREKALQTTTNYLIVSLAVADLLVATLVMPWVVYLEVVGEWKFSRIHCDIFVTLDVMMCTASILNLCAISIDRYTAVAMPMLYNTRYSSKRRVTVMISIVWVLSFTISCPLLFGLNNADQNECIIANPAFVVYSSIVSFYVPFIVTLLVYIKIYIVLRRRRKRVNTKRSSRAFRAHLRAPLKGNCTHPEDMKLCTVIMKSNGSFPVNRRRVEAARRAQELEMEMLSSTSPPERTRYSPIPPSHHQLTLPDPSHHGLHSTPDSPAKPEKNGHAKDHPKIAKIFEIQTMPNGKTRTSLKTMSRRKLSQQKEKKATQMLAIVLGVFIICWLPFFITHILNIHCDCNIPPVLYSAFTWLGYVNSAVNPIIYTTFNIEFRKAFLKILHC
row,Ki [µM],Compound
1,6.61,"Clc1ccc(Cl)c(-c2ccc(CNC3CC3)o2)c1 [ZINC 4868730, 70]"
2,2.9,"CC(C)(C)NCc1ccc(-c2ccccc2)o1 [ZINC 4942833, 65]"
3,6.35,"CCSc1nnc2n1CCCN2C(=O)CN1CCOCC1 [ZINC 17173082, 12]"

# Molecular target: D(3) dopamine receptor (Homo sapiens, UniProt P35462)
# Experiment: Binding Assay
# Conditions: pH 7.4; 22 °C
# Method: as §1
# Chain of D(3) dopamine receptor (P35462 as listed by the source): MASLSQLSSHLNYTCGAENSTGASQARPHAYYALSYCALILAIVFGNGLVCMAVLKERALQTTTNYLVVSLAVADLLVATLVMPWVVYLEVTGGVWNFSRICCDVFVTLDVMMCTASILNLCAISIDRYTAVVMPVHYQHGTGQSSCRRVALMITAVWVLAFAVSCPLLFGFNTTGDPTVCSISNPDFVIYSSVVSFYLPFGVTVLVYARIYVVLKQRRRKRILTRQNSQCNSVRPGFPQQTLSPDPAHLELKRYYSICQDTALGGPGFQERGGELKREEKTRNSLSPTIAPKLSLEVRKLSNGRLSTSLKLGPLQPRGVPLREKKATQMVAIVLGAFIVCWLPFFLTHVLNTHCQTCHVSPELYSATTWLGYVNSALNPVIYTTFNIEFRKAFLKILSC
row,Ki [µM],Compound
1,9.58,"CC(C)(CO)NCc1ccc(-c2ccccc2)o1 [ZINC 529108, 67]"
2,0.488,"C[C@H](O)CNCc1ccc(-c2cccc(Cl)c2)o1 [ZINC 4842613, 71]"
3,8.67,"CC(C)(C)NCc1ccc(-c2ccccc2)o1 [ZINC 4942833, 65]"
4,5.46,"CC(C)(C)NCc1ccc(-c2ccccc2Cl)o1 [ZINC 6743145, 66]"
5,8.89,"CC(C)NCc1ccc(-c2ccccc2)o1 [ZINC 10436232, 69]"
6,10,"c1ccc(Cn2cncn2)c(CNCc2ccc(-n3ccnc3)cc2)c1 [ZINC 30900826, 10]"
7,9.31,"c1ccc(-c2n[nH]cc2CNCc2ccc(Cn3ccnc3)cc2)cc1 [ZINC 42228310, 26]"
8,7.21,"CN(CCCOc1ccccc1)CC(=O)N1CCc2ccccc21 [ZINC 48057418, 45]"

# The remaining lines, values behind:
row,Compound,Ki [µM]
1,"CNCc1ccc(-c2cc(Cl)cc(Cl)c2)o1 [Azanium analog, 55]",0.2
2,"O=c1oc2c(CN3CCCC3)c(O)ccc2c2c1CCC2 [ZINC 118327, 8]",> 10
3,"Clc1ccc(Cl)c(-c2ccc(CNC3CC3)o2)c1 [ZINC 4868730, 70]",2.71
4,"CC(C)(CO)NCc1ccc(-c2ccc(F)c(Cl)c2)o1 [ZINC 4942963, 64]",6.81
5,"Cc1ccc(-c2ccc(CNC(C)(C)CO)o2)cc1Cl [ZINC 4999756, 68]",2.74
6,"CC[C@@H](CO)NCc1ccc(-c2cccc(Cl)c2C)o1 [ZINC 7538899, 72]",0.817
7,"CCSc1nnc2n1CCCN2C(=O)CN1CCOCC1 [ZINC 17173082, 12]",9.83
8,"O[C@@H](CN1CCC(Oc2cccc(F)c2)CC1)c1cccs1 [ZINC 19294224, 9]",9.46
9,"CN(Cc1nc2ccccc2s1)C[C@H](O)Cc1ccccc1 [ZINC 27406499, 25]",> 10
10,"N#C/C(=C\c1ccco1)C(=O)N1CCN(CCc2ccccc2)CC1 [ZINC 29218552, 47]",10
11,"CC1CCN(CCC(=O)N2c3ccccc3C[C@@H]2C)CC1 [ZINC 39217391, 11]",9.28
12,"Cc1cccc2nc(C(=O)NCC(c3ccco3)N(C)C)cn12 (configuration not stated) [ZINC 41903371, 52]",10
13,"C[C@H](C1CC1)N(CCC(=O)N1CCc2ccccc21)C1CC1 [ZINC 42123507, 27]",> 10
14,"Cc1cccc2nc(C(=O)NCC(C)N(C)C)cn12 (configuration not stated) [ZINC 46272073, 50]",10
15,"CN(C)[C@H](CNC(=O)c1cc([N+](=O)[O-])cc([N+](=O)[O-])c1)c1ccco1 [ZINC 49944321, 48]",7.77
16,"CN(CCOc1cccc(F)c1)CC(O)c1c(F)cccc1F (configuration not stated) [ZINC 51423503, 49]",8.74
